Values of other authors as cited in patent publication US20220248734A1, “NUTRITIONAL HEALTH SUPPLEMENTS” (MAYO FOUNDATION FOR MEDICAL EDUCATION AND RESEARCH, priority 2019, published 2022).

Settings: NAC received within 24 hours of head injury from a blast

Compound: CC(=O)N[C@@H](CS)C(=O)O [NAC, N-acetyl cysteine]
- side effects: no reported side effects
- symptom resolution: significantly increases symptom resolution
